pEC50: −log10 of the molar value.
Molecular target: GCS enzyme (glucosylceramide synthase) contained within Golgi preparations isolated from human A375 malignant melanoma skin cells (Homo sapiens (Human), UniProt Q16739)
Assay: UDP-Glo glucosylceramide synthase biochemical assay
Details: 1.5 μg crude golgi preparation from A375 cells; C6 ceramide and UDP-glucose at 2×Km; 20 h incubation at room temperature; UDP detected by luminescence
Text: UDP-Glo™ Glucosylceramide Synthase Biochemical Assay
A UDP-Glo™ glucosylceramide synthase biochemical assay was utilized to evaluate the effect of test compounds on the activity of endogenous levels of GCS enzyme contained within Golgi preparations isolated from human A375 malignant melanoma skin cells. The UDP-Glo™ glucosylceramide synthase assay uses UDP-Glucose as a nucleotide-glycosyl donor and ceramide as substrate acceptor molecules. In the reaction, glucosylceramide synthase (GCS) transfers glucose from UDP-Glucose to ceramide. Glucosylceramide and UDP are released as products.
Using Promega's UDP-Glo™ Glycosyltransferase assay kit (Promega Corporation, Madison, WI, USA (Promega)), GCS activity was indirectly measured by detecting the amount of UDP produced. An aliquot of GCS enzyme (1.5 μg crude golgi preparation, total protein) and titrated test compound were aliquoted to each well and incubated for 30 minutes at room temperature. Substrate mixture was prepared by mixing C6 ceramide (Avanti Polar Lipids, Alabaster, AL USA (Avanti)) (micelles prepared at 0.6 mM in 0.6 mM DOPC) and UDP-glucose (20 μ.M; Promega), at concentrations equivalent to 2×Km, in assay buffer (25 mM HEPES (pH 7.5), 50 mM KCl, 5 mM MgCl2). An equivalent volume of substrate mixture was then added to each well. Following a 20 h incubation at room temperature to allow for GCS turnover of substrate, an equal volume of UDP detection reagent (Promega) was added to each well and incubated for an additional 75 minutes at room temperature to simultaneously convert the accumulated UDP product into ATP and generate light in a luciferase reaction. The generated light was detected using a luminometer. […] luminescence values (RLUs) were normalized to mean “min” and “max” effects, as determined on each plate. “Min” was defined as the mean of the values of the wells treated with vehicle (DMSO) and which represent 0% inhibition; “max” was defined as the mean of the values of the wells treated with a reference inhibitor and which represent the 100% effect. Values for % Emax and EC50 were determined by best-fitting the normalized data to a curve in Activity Base along a four-parameter logistic nonlinear regression (4PL) model (based on the Levenberg-Marquardt algorithm and defined by the equation below): […]
where: n is 4PMin (bottom of the curve); m is 4PMax (top of the curve); i is IP (inflection point of curve); and p is slope. See Levenberg, K., “A Method for the Solution of Certain Problems in Least Squares”, Quart. Appl. Math. 2, (1944), pp 164-168 and Marquardt, D., “An Algorithm for Least Squares Estimation on Nonlinear Parameters”, SIAM J. Appl. Math. 11, (1963) pp 431-441.

Sequence of GCS enzyme (glucosylceramide synthase) contained within Golgi preparations isolated from human A375 malignant melanoma skin cells (Q16739 whole entry): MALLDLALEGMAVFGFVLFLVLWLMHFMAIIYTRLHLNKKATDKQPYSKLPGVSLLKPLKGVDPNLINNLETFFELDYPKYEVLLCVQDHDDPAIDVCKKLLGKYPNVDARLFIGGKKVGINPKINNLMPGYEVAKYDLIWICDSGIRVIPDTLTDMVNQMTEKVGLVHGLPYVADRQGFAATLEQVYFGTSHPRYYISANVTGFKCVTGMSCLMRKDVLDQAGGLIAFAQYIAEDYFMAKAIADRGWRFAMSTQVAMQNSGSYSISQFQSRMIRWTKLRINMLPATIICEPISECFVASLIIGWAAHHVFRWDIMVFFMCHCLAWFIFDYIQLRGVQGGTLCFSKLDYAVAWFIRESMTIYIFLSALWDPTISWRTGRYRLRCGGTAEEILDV

| Compound | pEC50 |
| --- | --- |
| CCCOc1ccccc1-c1cccc2cc(C(=O)NC3CN4CCC3CC4)oc12 (racemic) [Compound 23, (R and S)-7-(2-propoxyphenyl)-N-quinuclidin-3-yl-benzofuran-2-carboxamide] | 10.36 |
| COCCOc1ccccc1-c1cccc2cc(C(=O)Nc3cccnc3)oc12 [Compound 35, 7-[2-(2-methoxyethoxy)phenyl]-N-(3-pyridyl)benzofuran-2-carboxamide] | 7.03 |
| CCCOc1ccccc1-c1cccc2cc(C(=O)NC3CNCCC3(F)F)oc12 (single isomer, unassigned) [Compound 36, (R or S)-N-(4,4-difluoro-3-piperidyl)-7-(2-propoxyphenyl)benzofuran-2-carboxamide] | 8.85 |
| COc1ccc(C#N)cc1-c1cc(Cl)cc2cc(C(=O)N[C@@H]3CC[C@H](O)C3)oc12 [Compound 5, 5-chloro-7-(5-cyano-2-methoxy-phenyl)-N-[(1R,3S)-3-hydroxycyclopentyl] benzofuran-2-carboxamide] | 9.77 |
| CC(C)Oc1ccc(C#N)cc1-c1cc(F)cc2cc(C(=O)N[C@H]3C[C@@H](O)C3)oc12 [Compound 26, Cis-7-(5-cyano-2-isopropoxy-phenyl)-5-fluoro-N-(3-hydroxycyclobutyl) benzofuran-2-carboxamide] | 10.00 |
| Cc1nn(C)c(C)c1-c1cccc2cc(C(=O)Nc3ccc4cnccc4n3)oc12 [Compound 2, N-(1,6-naphthyridin-2-yl)-7-(1,3,5-trimethylpyrazol-4-yl)benzofuran-2-carboxamide] | 10.19 |
| COc1ncc(C#N)cc1-c1cccc2cc(C(=O)NC34CCC(O)(CC3)C4)oc12 [Compound 38, 7-(5-cyano-2-methoxypyridin-3-yl)-N-(4-hydroxybicyclo[2.2.1]heptan-1-yl)benzofuran-2-carboxamide] | 9.10 |
| O=C(Nc1cccnc1)c1cc2cccc(-c3ccccc3OCC(F)(F)F)c2o1 [Compound 7, N-(3-pyridyl)-7-[2-(2,2,2-trifluoroethoxy)phenyl] benzofuran-2-carboxamide] | 9.00 |
| CC(C)Oc1ccc(C#N)cc1-c1cc(Cl)cc2cc(C(=O)N[C@H]3C[C@@H](O)C3)oc12 [Compound 24, Cis-5-chloro-7-(5-cyano-2-isopropoxy-phenyl)-N-(3-hydroxycyclobutyl) benzofuran-2-carboxamide] | 10.36 |
| COc1ccc(C#N)cc1-c1cccc2cc(C(=O)NC34CCC(O)(CC3)C4)oc12 [Compound 3, 7-(5-cyano-2-methoxy-phenyl)-N-(4-hydroxynorbornan-1-yl)benzofuran-2-carboxamide] | 10.01 |
| O=C(NC1CNCCC1(F)F)c1cc2cccc(-c3ccccc3OCC(F)(F)F)c2o1 (racemic) [Compound 14, (R and S)-N-(4,4-difluoro-3-piperidyl)-7-[2-(2,2,2-trifluoroethoxy)phenyl] benzofuran-2-carboxamide] | 9.32 |
| N#Cc1ccc(F)c(-c2cccc3cc(C(=O)N[C@@H]4CC[C@H](O)C4)oc23)c1 [Compound 32, 7-(5-cyano-2-fluoro-phenyl)-N-[(1R,3S)-3-hydroxycyclopentyl] benzofuran-2-carboxamide] | 8.30 |
| COc1ccc(Cl)cc1-c1cc(F)cc2cc(C(=O)N[C@H]3C[C@@H](CO)C3)oc12 [Compound 28, Cis-7-(5-chloro-2-methoxy-phenyl)-5-fluoro-N-[3-(hydroxymethyl)cyclobutyl]be nzofuran-2-carboxamide] | 9.22 |
| O=C(N[C@H]1CC[C@H](CO)CC1)c1cc2cc(F)cc(-c3ccccc3OCC(F)(F)F)c2o1 [Compound 1, 5-fluoro-N-(trans-4-(hydroxymethyl)cyclohexyl)-7-(2-(2,2,2-trifluoroethoxy)phenyl) benzofuran-2-carboxamide] | 9.00 |
| CCCCOc1ccccc1-c1cccc2cc(C(=O)NC3CN4CCC3CC4)oc12 (racemic) [Compound 21, (R and S)-7-(2-butoxyphenyl)-N-quinuclidin-3-yl-benzofuran-2-carboxamide] | 10.68 |
| CCCCOc1ccccc1-c1cccc2cc(C(=O)NC(C)(C)CO)oc12 [Compound 13, 7-(2-butoxyphenyl)-N-(2-hydroxy-1,1-dimethyl-ethyl)benzofuran-2-carboxamide] | 7.55 |

| Compound | pEC50 |
| --- | --- |
| N#Cc1ccc(Cl)c(-c2cccc3cc(C(=O)N[C@@H]4CC[C@H](O)C4)oc23)c1 [Compound 25, 7-(2-chloro-5-cyano-phenyl)-N-[(1R,3S)-3-hydroxycyclopentyl] benzofuran-2-carboxamide] | 10.33 |
| O=C(NC1CCC(O)CC1F)c1cc2cccc(-c3ccccc3OCC(F)(F)F)c2o1 (stereo not shown) [Compound 11, N-(2-fluoro-4-hydroxy-cyclohexyl)-7-[2-(2,2,2-trifluoroethoxy)phenyl] benzofuran-2-carboxamide] | 8.15 |
| COc1ncc(Cl)cc1-c1cccc2cc(C(=O)NC34CCC(O)(CC3)C4)oc12 [Compound 8, 7-(5-chloro-2-methoxy-3-pyridyl)-N-(4-hydroxynorbornan-1-yl)benzofuran-2-carboxamide] | 8.96 |
| O=C(N[C@@H]1CNCC[C@H]1F)c1cc2cccc(-c3ccccc3OCC(F)(F)F)c2o1 (relative stereo) [Compound 15, N-(trans-4-fluoro-3-piperidyl)-7-[2-(2,2,2-trifluoroethoxy)phenyl] benzofuran-2-carboxamide] | 8.77 |
| Cc1nn(C)c(C)c1-c1cccc2cc(C(=O)NC3CN4CCC3CC4)oc12 (racemic) [Compound 37, (R and S)-N-(quinuclidin-3-yl)-7-(1,3,5-trimethyl-1H-pyrazol-4-yl)benzofuran-2-carboxamide] | 8.62 |
| N#Cc1ccc(OC(F)F)c(-c2cccc3cc(C(=O)NC45CCC(O)(CC4)C5)oc23)c1 [Compound 4, 7-[5-cyano-2-(difluoromethoxy)phenyl]-N-(4-hydroxynorbornan-1-yl)benzofuran-2-carboxamide] | 10.00 |
| COc1ccc(F)c(F)c1-c1cccc2cc(C(=O)N[C@@H]3CC[C@H](O)C3)oc12 [Compound 30, 7-(2,3-difluoro-6-methoxy-phenyl)-N-[(1R,3S)-3-hydroxycyclopentyl] benzofuran-2-carboxamide] | 8.47 |
| O=C(NC12CCC(CO)(CC1)CC2)c1cc2cc(F)cc(-c3ccccc3OCC(F)(F)F)c2o1 [Compound 17, 5-fluoro-N-[4-(hydroxymethyl)-1-bicyclo[2.2.2]octanyl]-7-[2-(2,2,2-trifluoroethoxy)phenyl] benzofuran-2-carboxamide] | 9.05 |
| O=C(N[C@H]1CC[C@H](O)CC1)c1cc2cccc(-c3ccccc3OCC(F)(F)F)c2o1 [Compound 34, Trans-N-(4-hydroxycyclohexyl)-7-[2-(2,2,2-trifluoroethoxy)phenyl] benzofuran-2-carboxamide] | 7.47 |
| O=C(Nc1ccc2cnccc2n1)c1cc2cccc(-c3ccccc3OCC(F)(F)F)c2o1 [Compound 22, N-(1,6-naphthyridin-2-yl)-7-[2-(2,2,2-trifluoroethoxy)phenyl] benzofuran-2-carboxamide] | 10.64 |
| COc1cc(-c2ccccc2OCC(F)(F)F)c2oc(C(=O)NC3CCC(CO)CC3)cc2c1 (stereo not shown) [Compound 31, N-[4-(hydroxymethyl)cyclohexyl]-5-methoxy-7-[2-(2,2,2-trifluoroethoxy)phenyl] benzofuran-2-carboxamide] | 8.39 |
| O=C(NC12CCC(O)(CC1)C2)c1cc2cccc(-c3cc(Cl)cnc3OC(F)F)c2o1 [Compound 6, 7-[5-chloro-2-(difluoromethoxy)-3-pyridyl]-N-(4-hydroxynorbornan-1-yl)benzofuran-2-carboxamide] | 9.06 |
| CCOc1ccc(F)cc1-c1cccc2cc(C(=O)N[C@@H]3CC[C@H](O)C3)oc12 [Compound 33, 7-(2-ethoxy-5-fluoro-phenyl)-N-[(1R,3S)-3-hydroxycyclopentyl] benzofuran-2-carboxamide] | 8.19 |
| O=C(NC1CN2CCC1CC2)c1cc2cc(Cl)cc(-c3ccccc3OCCF)c2o1 (racemic) [Compound 20, (R and S)-5-chloro-7-[2-(2-fluoroethoxy)phenyl]-N-quinuclidin-3-yl-benzofuran-2-carboxamide] | 10.70 |
| CC(CO)C12CC(NC(=O)c3cc4cccc(-c5ccccc5OCC(F)(F)F)c4o3)(C1)C2 (racemic) [Compound 9, (R and S)-N-[3-(2-hydroxy-1-methyl-ethyl)-1-bicyclo[1.1.1]pentanyl]-7-[2-(2,2,2-trifluoroethoxy)phenyl] benzofuran-2-carboxamide] | 8.77 |

— patent publication US20230391758A1, “MODIFIED BENZOFURAN-CARBOXAMIDES AS GLUCOSYLCERAMIDE SYNTHASE INHIBITORS” (MERCK SHARP & DOHME CORP., priority 2020, published 2023)
